What was measured:
[1] = tested on: A549 (human lung adenocarcinoma); assay: MTT in vitro cytotoxic test, A549; type: cell-based; conditions: A549 cells
From the text: (§1) MTT test was used for in vitro evaluation of antitumor activities of newly synthesized compounds on cell lines derived from normal tissues or tumors. Specifically, cell lines K562 (human […]), K562-Tax (human […] myeloid leukemia, paclitaxel resistant subline, overexpress multiple drug resistant protein PgP), CEM (T-lymfoblastic leukemia), CEM-DNR-bulk (T-lymfoblastic leukemia, doxorubicin resistant), A549 (human lung adenocarcinoma), HCT116 wt (human colorectal cancer, wild-type), HCT116p53−/−(human colorectal cancer, mutant p53) a U2OS (human bone osteosarcoma) were used.
(§2) Express characteristics, susceptibility profiles of classic antitumor drugs as well as methodology of cytotoxic MTT test have been repeatedly published {ref.:Noskova, V.; Dzubak, P.; Kuzmina, G.; Ludkova, A.; Stehlik, D.; Trojanec, R.; Janostakova, A.; Korinkova, G.; Mihal, V.; Hajduch, M., Neoplasma 2002, 49, 418-425}.

[2] = tested on: CCRF-CEM (CEM, T-lymfoblastic leukemia); assay: MTT in vitro cytotoxic test, CCRF-CEM; type: cell-based; conditions: Homo sapiens, CCRF-CEM cells
From the text: as §1, §2

[3] = tested on: CEM-DNR-bulk (T-lymfoblastic leukemia, doxorubicin resistant); assay: MTT in vitro cytotoxic test, CEM-DNR; type: cell-based; conditions: Homo sapiens, CEM-DNR cells (doxorubicin resistant)
From the text: as §1, §2

[4] = tested on: HCT116 wt (human colorectal cancer, wild-type); assay: MTT in vitro cytotoxic test, HCT116; type: cell-based; conditions: HCT-116, HCT116 cells (p53 wild type)
From the text: as §1, §2

[5] = tested on: HCT116p53−/− (human colorectal cancer, mutant p53); assay: MTT in vitro cytotoxic test, HCT116p53; type: cell-based; conditions: HCT116p53−/− cells
From the text: as §1, §2

[6] = tested on: K562 (human acute myeloid leukemia); assay: MTT in vitro cytotoxic test, K562; type: cell-based; conditions: K562 cells
From the text: as §1, §2

[7] = tested on: K562-Tax (human acute myeloid leukemia, paclitaxel resistant subline); assay: MTT in vitro cytotoxic test, K562-TAX; type: cell-based; conditions: K562-TAX cells (paclitaxel resistant)
From the text: as §1, §2

[8] = tested on: U2OS (human bone osteosarcoma); assay: MTT in vitro cytotoxic test, U2OS; type: cell-based; conditions: U2OS cells
From the text: as §1, §2

[9] = tested on: cancer cell lines of various histogenetic origin; assay: In vitro cytotoxic test, summary over cancer cell lines; type: cell-based, human; conditions: text summary of Table 4
From the text: as §1, §2

| SMILES | melting point | IC50 [1] | IC50 [2] | IC50 [3] | IC50 [4] | IC50 [5] | IC50 [6] | IC50 [7] | IC50 [8] | IC50 values (range in words) [9] |
| --- | --- | --- | --- | --- | --- | --- | --- | --- | --- | --- |
| CN(C)c1ncnc2c1c1ccsc1n2[C@@H]1O[C@H](CO)[C@@H](O)[C@H]1O [Compound 1e, 4-(N,N-dimethylamino)-8-(β-D-ribofuranosyl)-8H-thieno[3′,2′:4,5]pyrrolo[2,3-d]pyrimidine] | 117 °C | 25 to 50 µM | 25 to 50 µM | 25 to 50 µM | 25 to 50 µM | 25 to 50 µM | 25 to 50 µM | 25 to 50 µM | 25 to 50 µM | – |
| OC[C@H]1O[C@@H](n2c3ncnc(-c4cc5ccccc5o4)c3c3ccsc32)[C@H](O)[C@@H]1O [Compound 1c, 4-(Benzofuran-2-yl)-8-(β-D-ribofuranosyl)-8H-thieno[3′,2′:4,5]pyrrolo[2,3-d]pyrimidine] | – | 25 to 50 µM | 10 to 25 µM | 10 to 25 µM | 25 to 50 µM | 25 to 50 µM | 25 to 50 µM | 10 to 25 µM | 25 to 50 µM | micromolar range |
| OC[C@H]1O[C@@H](n2c3ncnc(-c4ccco4)c3c3ccsc32)[C@H](O)[C@@H]1O [Compound 1a, 4-(Furan-2-yl)-8-(β-D-ribofuranosyl)-8H-thieno[3′,2′:4,5]pyrrolo[2,3-d]pyrimidine] | – | 25 to 50 µM | 25 to 50 µM | 25 to 50 µM | 25 to 50 µM | 25 to 50 µM | 25 to 50 µM | 25 to 50 µM | 25 to 50 µM | – |
| OC[C@H]1O[C@@H](n2c3ncnc(-c4ccoc4)c3c3ccsc32)[C@H](O)[C@@H]1O [Compound 1b, 4-(Furan-3-yl)-8-(β-D-ribofuranosyl)-8H-thieno[3′,2′:4,5]pyrrolo[2,3-d]pyrimidine] | – | 25 to 50 µM | 25 to 50 µM | 25 to 50 µM | 25 to 50 µM | 25 to 50 µM | 25 to 50 µM | 25 to 50 µM | 25 to 50 µM | – |
| Cc1ncnc2c1c1ccsc1n2[C@@H]1O[C@H](CO)[C@@H](O)[C@H]1O [Compound 1d, 4-Methyl-8-(β-D-ribofuranosyl)-8H-thieno[3′,2′:4,5]pyrrolo[2,3-d]pyrimidine] | 126 to 128 °C | 0.2 to 0.9 µM | 0.01 to 0.2 µM | 25 to 50 µM | 0.2 to 0.9 µM | 0.2 to 0.9 µM | 0.01 to 0.2 µM | 0.9 to 10 µM | 0.01 to 0.2 µM | sub-micromolar to nanomolar |

The next lines start with results.

| melting point | SMILES | IC50 [1] | IC50 [2] | IC50 [3] | IC50 [4] | IC50 [5] | IC50 [6] | IC50 [7] | IC50 [8] | IC50 values (range in words) [9] |
| --- | --- | --- | --- | --- | --- | --- | --- | --- | --- | --- |
| 148 to 152 °C | CSc1ncnc2c1c1ccsc1n2[C@@H]1O[C@H](CO)[C@@H](O)[C@H]1O [Compound 1h, 4-(Methylsulfanyl)-8-(β-D-ribofuranosyl)-8H-thieno[3′,2′:4,5]pyrrolo[2,3-d]pyrimidine] | 0.2 to 0.9 µM | 0.01 to 0.2 µM | 25 to 50 µM | 0.01 to 0.2 µM | 0.2 to 0.9 µM | 0.2 to 0.9 µM | 10 to 25 µM | 0.01 to 0.2 µM | sub-micromolar to nanomolar |
| 98 °C | Nc1ncnc2c1c1ccsc1n2[C@@H]1O[C@H](CO)[C@@H](O)[C@H]1O [Compound 1f, 4-Amino-8-(β-D-ribofuranosyl)-8H-thieno[3′,2′:4,5]pyrrolo[2,3-d]pyrimidine] | 25 to 50 µM | 0.2 to 0.9 µM | 25 to 50 µM | 25 to 50 µM | 0.9 to 10 µM | 25 to 50 µM | 0.2 to 0.9 µM | 0.2 to 0.9 µM | micromolar range |
| 159 to 160 °C | COc1ncnc2c1c1ccsc1n2[C@@H]1O[C@H](CO)[C@@H](O)[C@H]1O [Compound 1g, 4-Methoxy-8-(β-D-ribofuranosyl)-8H-thieno[3′,2′:4,5]pyrrolo[2,3-d]pyrimidine] | 0.9 to 10 µM | 0.01 to 0.2 µM | 25 to 50 µM | 0.2 to 0.9 µM | 0.2 to 0.9 µM | 0.2 to 0.9 µM | 10 to 25 µM | 0.01 to 0.2 µM | sub-micromolar to nanomolar |

— patent US10414788B2, “Substituted thienopyrrolopyrimidine ribonucleosides for therapeutic use” (USTAV ORGANICKE CHEMIE A BIOCHEMIE AV CR, V.V.I., priority 2016, dated 2019)
